Source: the Deep4Chem optical property database

Assay: solvent given as SMILES

Question: What does the source list for `CN(C)c1ccc2nc(/C=C/c3cc4c5c(c3)CCCN5CCC4)c(=O)oc2c1`?
Answer: emission maximum (in C1CCCCC1): 543 nm; emission maximum (in C1COCCO1): 611 nm; emission maximum (in CC#N): 709 nm; emission maximum (in CC(C)=O): 679 nm; emission maximum (in CCCCCCC): 540 nm; emission maximum (in CCO): 705 nm; emission maximum (in CCOC(C)=O): 628 nm; emission maximum (in CN(C)C=O): 704 nm; emission maximum (in CS(C)=O): 715 nm; emission maximum (in Cc1ccccc1): 596 nm; emission maximum (in ClC(Cl)Cl): 671 nm; emission maximum (in ClCCl): 678 nm

Question: For `CCCCCCN1C(=O)c2cccc3c(-c4scc5c4OCCO5)ccc(c23)C1=O`, which emission maximum (in ClC(Cl)Cl) is on record?
Answer: 484 nm

Question: For `CCCCCCCCn1c(=O)c2cc3cc4cc5c(=O)n(CCCCCCCC)c(=O)c5cc4c(C#Cc4ccc(N(c5ccccc5)c5ccccc5)cc4)c3cc2c1=O`, which emission maximum (in ClC(Cl)Cl) is on record?
Answer: 611 nm

Question: Which emission maximum (in ClCCl) does the source give for `CN(C)c1ccc(-c2ccc(/C=C/c3ccncn3)cc2)cc1` here?
Answer: 570 nm

Question: What does the source list for `CN(C)c1ccc2c(-c3ccc(C(=O)[O-])cc3C(=O)[O-])c3ccc(=[N+](C)C)cc-3oc2c1`?
Answer: emission maximum (in CCO): 569 nm; emission maximum (in O): 578 nm

Question: For `F[B-]1(F)n2c(cc3c2-c2ccccc2CC3)C(c2ccc(I)cc2)=C2C=C3CCc4ccccc4C3=[N+]21`, which emission maximum (in ClC(Cl)Cl) is on record?
Answer: 647 nm

Question: Which results are given for `CCCCN1C(=O)c2cc(Oc3ccc(C(C)(C)C)cc3)c3c4c(Oc5ccc(C(C)(C)C)cc5)cc5c6c(cc(Oc7ccc(C(C)(C)C)cc7)c(c7c(Oc8ccc(C(C)(C)C)cc8)cc(c2c37)C1=O)c64)C(=O)N(CCCC)C5=O`?
Answer: emission maximum (in ClC(Cl)Cl): 615 nm; emission maximum (in ClCCl): 607 nm

Question: With `Cc1cc2c(ccc3c(C)[n+](C)c(C)cc32)c(C)[n+]1C` as the molecule, how does the emission maximum (in CC#N) read?
Answer: 424 nm

Question: Which emission maximum (in ClC(Cl)Cl) does the source give for `Cc1ccc(C#Cc2ccc(C#Cc3ccc(C#Cc4ccccc4C#N)cc3C#N)cc2C#N)cc1` here?
Answer: 403 nm

Question: Which emission maximum (in ClCCl) does the source give for `O=c1c2cccc3cccc(c32)c2nc3cccc4cccc(c43)n12` here?
Answer: 682 nm

Question: Which emission maximum (in CC#N) does the source give for `FC(F)(F)c1ccc(-c2pc3ccccc3s2)cc1` (configuration not stated) here?
Answer: 430 nm

Question: With `CCn1c(-c2ccc(-c3ccc4c(c3)C(c3ccccc3)(c3ccccc3)c3ccccc3-4)cc2)c(-c2ccc3ccccc3c2)c(-c2ccc3ccccc3c2)c1-c1ccc(-c2ccc3c(c2)C(c2ccccc2)(c2ccccc2)c2ccccc2-3)cc1` as the molecule, how does the emission maximum (in CCOC(C)=O) read?
Answer: 441 nm

Question: For `c1ccc(-n2nc(-c3ccc(N4c5ccccc5Sc5ccccc54)cc3)nc2-c2ccccn2)cc1`, which emission maximum (in ClCCl) is on record?
Answer: 468 nm

Question: For `F[B-]1(F)OC(c2ccc(Br)cc2)=Cc2c3ccccc3cc[n+]21`, which emission maximum (in ClC(Cl)Cl) is on record?
Answer: 466.4 nm

Question: With `C(#Cc1cccc2nsnc12)c1ccc(-n2c3ccccc3c3ccccc32)cc1` as the molecule, how does the emission maximum (in ClCCl) read?
Answer: 538 nm

Question: With `COc1cccc2cc(-c3ccc([N+](=O)[O-])cc3)c(=N)oc12` as the molecule, how does the emission maximum (in C1CCOC1) read?
Answer: 374 nm

Question: What about the emission maximum (in CC#N) of the same molecule?
Answer: 366 nm

Question: And the emission maximum (in CS(C)=O)?
Answer: 392 nm

Question: And the emission maximum (in ClC(Cl)Cl)?
Answer: 380 nm

Question: With `N#CC(C#N)=Cc1ccc(-c2ccc(N(c3ccccc3)c3ccccc3)cc2)s1` as the molecule, how does the emission maximum (in ClC(Cl)Cl) read?
Answer: 634 nm

Question: Which emission maximum (in CC#N) does the source give for `Cc1cccc2cc3c(=O)n(C)c(=O)n(C)c3nc12` here?
Answer: 417 nm

Question: What about the emission maximum (in CC(C)O) of the same molecule?
Answer: 421 nm

Question: And the emission maximum (in CCO)?
Answer: 423 nm

Question: And the emission maximum (in CO)?
Answer: 425 nm

Question: And the emission maximum (in ClC(Cl)Cl)?
Answer: 417 nm

Question: What about the emission maximum (in ClCCl) of the same molecule?
Answer: 417 nm

Question: With `CC1=C(c2cccs2)C(C)=[N+]2C1=C(c1ccccc1)c1c(C)c(-c3cccs3)c(C)n1[B-]2(F)F` as the molecule, how does the emission maximum (in CO) read?
Answer: 610 nm

Question: And the emission maximum (in Cc1ccccc1)?
Answer: 609 nm

Question: What about the emission maximum (in ClCCl) of the same molecule?
Answer: 609 nm

Question: Which results are given for `CN(C)c1ccc(-c2nc(C#N)c(C#N)n2C)cc1`?
Answer: emission maximum (in C1CCCCC1): 375 nm; emission maximum (in CC#N): 519 nm; emission maximum (in CO): 427 nm; emission maximum (in ClC(Cl)Cl): 437 nm

Question: What does the source list for `CC(=O)OC[C@@H]1O[C@H](N2C=CC3=Nc4nc(C)[n+](C)cc4CN3C2=O)[C@@H](O)[C@H]1O`?
Answer: emission maximum (in CC#N): 416 nm; emission maximum (in CCO): 418 nm; emission maximum (in O): 414 nm

Question: With `CC(C)(C)Nc1oc(C=Cc2ccccc2)c(C(=O)OC(C)(C)C)c1C(=O)OC(C)(C)C` as the molecule, how does the emission maximum (in CC#N) read?
Answer: 460 nm

Question: For `COc1ccc(N(c2ccc(OC)cc2)c2ccc3c(c2)C2(c4cc(N(c5ccc(OC)cc5)c5ccc(OC)cc5)ccc4C=C3)c3ccccc3-c3ccccc32)cc1`, which emission maximum (in ClCCl) is on record?
Answer: 483 nm

Question: Which emission maximum (in C1CCCCC1) does the source give for `CCC1=C(C)C2=C(C)c3c(C)c(CC)c(C)n3[B-](F)(F)[N+]2=C1C` here?
Answer: 537.2 nm

Question: What about the emission maximum (in C1CCOC1) of the same molecule?
Answer: 534 nm

Question: And the emission maximum (in C1COCCO1)?
Answer: 533.2 nm

Question: What about the emission maximum (in CC#N) of the same molecule?
Answer: 530.4 nm

Question: And the emission maximum (in CC(C)=O)?
Answer: 532 nm

Question: And the emission maximum (in CC(C)O)?
Answer: 534 nm

Question: And the emission maximum (in CCC(C)C)?
Answer: 534.4 nm

Question: What about the emission maximum (in CCCCCC) of the same molecule?
Answer: 533.6 nm

Question: And the emission maximum (in CCCCCCCC)?
Answer: 535.2 nm

Question: What about the emission maximum (in CCCCCCCCCCO) of the same molecule?
Answer: 534.8 nm

Question: And the emission maximum (in CCCCCCCCO)?
Answer: 534.4 nm

Question: And the emission maximum (in CCCCCCO)?
Answer: 534.8 nm

Question: And the emission maximum (in CCCCO)?
Answer: 534.4 nm

Question: And the emission maximum (in CCCO)?
Answer: 534 nm

Question: What about the emission maximum (in CCO) of the same molecule?
Answer: 532.4 nm

Question: And the emission maximum (in CCOC(C)=O)?
Answer: 531.6 nm

Question: What about the emission maximum (in CCOCC) of the same molecule?
Answer: 532.8 nm

Question: And the emission maximum (in CN1CCCC1=O)?
Answer: 533.2 nm

Question: What about the emission maximum (in CN(C)C=O) of the same molecule?
Answer: 532.8 nm

Question: And the emission maximum (in CO)?
Answer: 531.6 nm

Question: And the emission maximum (in Cc1ccccc1)?
Answer: 536.4 nm

Question: What about the emission maximum (in ClCCl) of the same molecule?
Answer: 534 nm

Question: And the emission maximum (in OCC(F)(F)F)?
Answer: 535.2 nm

Question: What about the emission maximum (in OCCO) of the same molecule?
Answer: 536.4 nm

Question: What about the emission maximum (in OCCOc1ccccc1) of the same molecule?
Answer: 536.8 nm

Question: What about the emission maximum (in c1ccccc1) of the same molecule?
Answer: 536.4 nm
